Columns and labels:
[1] = tested on: DDT_13 (DNA, aptamer) TCCAGCACTCCACGCATAACGAATTGTGCTCAATGCGCCCCTGCAGTGAATGTGGAATTTGTTATGCGTGCGACGGTGAA; assay: AuNPs colorimetric assay; settings: room temperature
[2] = tested on: DDT_13 (DNA, aptamer) TCCAGCACTCCACGCATAACGAATTGTGCTCAATGCGCCCCTGCAGTGAATGTGGAATTTGTTATGCGTGCGACGGTGAA; assay: SYBR Green I fluorescence assay; settings: 137 mM NaCl, 2.5 mM KCl, 0.5 mM MgCl2, 1 mM CaCl2; phosphate binding buffer pH 7.2, room temperature; interferent prepared at 5 μM

binding ([1]; interferent prepared at 16 μM) | binding [2] | binding ([1]; interferent prepared at 7.4 μM) | SMILES
no | – | – | O=C(O)C(F)(F)C(F)(F)C(F)(F)C(F)(F)C(F)(F)C(F)(F)C(F)(F)F
no | no | – | O=C(O)CNCP(=O)(O)O
no | – | – | CCOC(=O)C(C)=O
– | – | no | CC(C)(c1cc(Br)c(O)c(Br)c1)c1cc(Br)c(O)c(Br)c1
no | no | – | O=C(O)C(c1ccc(Cl)cc1)c1ccc(Cl)cc1

From publication PMC7139375 (2020)
